Test results reported in patent US10752588B2 (The Broad Institute, Inc., priority 2014, dated 2020).
Like-named read-outs stand apart in the source and are kept apart here.

Legend:
[1] = target: T1, human D2R/β-arrestin (Homo sapiens (Human), UniProt P14416); conditions: read-out: cAMP Antagonist
[2] = target: T1, human D2R/β-arrestin; test: β-Arrestin agonist assay (PathHunter); format: cell-based; conditions: CHO-K1 cell line expressing human D2R/β-arrestin
Outline: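 Readout follows addition of Buffer:Emerald II:Galactor-Star reagent (19:5:1) to agonist-treated plates, measured as luminescence or fluorescence.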

[3] = target: T1, human D2R/β-arrestin; test: Gi/cAMP agonist assay (Lance Ultra cAMP, Forskolin); format: cell-based; conditions: CHO-K1 cell line expressing human D2R/β-arrestin
Outline: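 Read-out was Lance Ultra competitive TR-FRET (Eu-cAMP tracer plus ULight-anti-cAMP) following forskolin-induced cAMP production. Before forskolin stimulation, compounds were pin-transferred onto the seeded cells for 10 min at 37 °C.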

[4] = target: T1, human D2R/β-arrestin; conditions: read-out: β-arrestin Antagonist

T1 sequence (P14416 whole entry): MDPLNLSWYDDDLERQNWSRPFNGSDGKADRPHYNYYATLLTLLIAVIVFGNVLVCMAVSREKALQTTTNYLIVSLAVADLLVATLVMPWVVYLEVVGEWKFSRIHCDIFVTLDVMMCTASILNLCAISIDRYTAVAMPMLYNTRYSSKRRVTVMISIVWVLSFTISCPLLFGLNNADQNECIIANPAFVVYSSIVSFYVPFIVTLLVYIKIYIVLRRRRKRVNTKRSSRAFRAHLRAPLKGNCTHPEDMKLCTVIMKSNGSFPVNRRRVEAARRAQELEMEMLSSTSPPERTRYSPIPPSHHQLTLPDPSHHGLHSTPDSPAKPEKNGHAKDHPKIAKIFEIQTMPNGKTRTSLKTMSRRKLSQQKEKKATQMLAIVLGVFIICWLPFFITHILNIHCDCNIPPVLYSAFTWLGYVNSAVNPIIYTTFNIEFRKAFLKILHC

SMILES | IC50 [1] [nM] | EC50 [2] [µM] | EC50 [3] [µM] | IC50 [4] [nM]
O=C(NC(c1ccc(Cl)cc1)c1ccccn1)C1CCN(CCOc2cccc(F)c2)CC1 (single isomer, unassigned) [Compound 4a] | > 30000 | 1 to 10 | 0.1 to 1 | 1000 to 10000
O=C(NC(c1ccc(Cl)cc1)c1ccccn1)C1CCN(CCOc2cccc(F)c2)CC1 (single isomer, unassigned) [Compound 4b] | 100 to 1000 | > 30 | > 30 | 1000 to 10000
O=C(NC(c1ccc(Cl)cc1)c1ccccn1)C1CCN(CCn2ccc(=O)cc2)CC1 (single isomer, unassigned) [Compound 11a] | 1000 to 10000 | > 30 | > 30 | 100 to 1000
O=C(NC(c1ccc(Cl)cc1)c1ccccn1)C1CCN(CCn2ccc(=O)cc2)CC1 (single isomer, unassigned) [Compound 11b] | > 30000 | > 30 | > 30 | > 30000
O=C(NC(c1ccc(Cl)cc1)c1ccccn1)C1CCN(CCOc2cc(F)ccc2F)CC1 (single isomer, unassigned) [Compound 14a] | > 30000 | 0.1 to 1 | < 0.1 | 1000 to 10000
O=C(NC(c1ccc(Cl)cc1)c1ccccn1)C1CCN(CCOc2cc(F)ccc2F)CC1 (single isomer, unassigned) [Compound 14b] | 1000 to 10000 | > 30 | > 30 | 100 to 1000
O=C(NC(c1ccc(Cl)cc1)c1ccccn1)C1CCN(CCOc2ccc3cccnc3c2)CC1 (single isomer, unassigned) [Compound 16a] | > 30000 | 1 to 10 | < 0.1 | > 30000
O=C(NC(c1ccc(Cl)cc1)c1ccccn1)C1CCN(CCOc2ccc3cccnc3c2)CC1 (single isomer, unassigned) [Compound 16b] | > 30000 | > 30 | 1 to 10 | > 30000
COc1cccc(C(NC(=O)C2CCN(CCOc3ccccc3F)CC2)c2ccccn2)c1 (single isomer, unassigned) [Compound 22a, 1-(2-(2-fluorophenoxy)ethyl)-N-((3-methoxyphenyl)(pyridin-2-yl)methyl) piperidine-4-carboxamide] | 100 to 1000 | > 30 | 10 to 30 | 100 to 1000
O=C(NC(c1ccc(Cl)cc1)c1ccccc1F)C1CCN(CCOc2ccccc2)CC1 (single isomer, unassigned) [Compound 40a, N((4-chlorophenyl)(2-fluorophenyl)methyl)-1-(2-phenoxyethyl) piperidine-4-carboxamide] | 100 to 1000 | > 30 | > 30 | 100 to 1000
O=C(NC(c1ccc(Cl)cc1)c1ccccc1F)C1CCN(CCOc2ccccc2)CC1 (single isomer, unassigned) [Compound 40b, N((4-chlorophenyl)(2-fluorophenyl)methyl)-1-(2-phenoxyethyl) piperidine-4-carboxamide] | > 30000 | > 30 | 1 to 10 | 1000 to 10000
O=C(NC(c1ccc(F)cc1)c1ccc(Cl)cc1)C1CCN(CCOc2ccccc2)CC1 (single isomer, unassigned) [Compound 42a] | 100 to 1000 | > 30 | 0.1 to 1 | 100 to 1000
O=C(NC(c1ccc(F)cc1)c1ccc(Cl)cc1)C1CCN(CCOc2ccccc2)CC1 (single isomer, unassigned) [Compound 42b] | 1000 to 10000 | > 30 | 10 to 30 | 1000 to 10000
O=C(NC(c1ccccc1)c1ccc(F)cc1)C1CCN(CCOc2ccccc2)CC1 (single isomer, unassigned) [Compound 45a] | 100 to 1000 | > 30 | > 30 | 100 to 1000
O=C(NC(c1ccccc1)c1ccc(F)cc1)C1CCN(CCOc2ccccc2)CC1 (single isomer, unassigned) [Compound 45b] | 100 to 1000 | > 30 | 0.1 to 1 | 100 to 1000
